# “And” between values parts separate entries of the source, which are not always exact repeats. Equal values may be shown once.
# Columns and labels:
# p-AKT Ser473 [1] = experiment: Flow cytometry, basal AKT phosphorylation in CD34+ progenitor cells from MF patients; type: cell-based, human; conditions: for effect on p-AKT in MF progenitor cells: basal and TPO-treated, dose dependent
# Experimental: (§1) PBMCs were isolated from whole blood of myelofibrosis (MF) patients who had not received treatments (i.e. naïve patients) or received ruxolitinib (i.e. rux-treated patients). The cells were treated with 0.02, 0.2, or 2.0 μM of Compound B or vehicle (0.1% DMSO in 0.1% FBS/RPMI) for 2 hours at 37° C. The cells were then fixed, permeabilized, and stained for FACS analysis. Antibodies specific to p-AKT Ser473 and pS6RP Ser235/236 were used to detect AKT phosphorylation (p-AKT) and S6RP phosphorylation (p-S6RP) in CD34^+/CD3^−/CD14^−/CD19/CD66^− (BD Biosciences) gated cells using flow cytometry. The percentage of basal (i.e. untreated with TPO) AKT and S6RP phosphorylation were normalized to vehicle control. A two-tailed paired t-test (GraphPad Prism) was used to calculate p-values. Values of p<0.05 were considered significant.
# (§2) Similar studies were conducted with PI3K inhibitors Compounds C and D. PBMC from MF patients had received ruxolitinib (rux) and MF patient had received Compound A. The cells were treated with Compounds C or D at 0, 20.0, 200.0, 2000.0 nM for 2 hours at 37° C. Cells were treated with TPO for 10 minutes. The percentage of basal p-AKT and p-S6RP levels were normalized to vehicle control and those of TPO-treated were normalized to TPO-treated vehicle control. The PI3Kδ inhibitors Compound C is referred by the chemical names of (S)-2-(1-((9H-purin-6-yl)amino)ethyl)-6-fluoro-3-phenylquinazolin-4(3H)-one.
# pS6RP Ser235/236 [2] = experiment: Flow cytometry, basal S6RP phosphorylation in CD34+ progenitor cells from MF patients; type: cell-based, human; conditions: for effect on p-S6RP in MF progenitor cells: basal and TPO-treated, dose dependent
# Experimental: as §1, §2
# Ri-1 DLBCL cells = experiment: Cell death assay (Annexin V/7AAD) in Ri-1 DLBCL cells; type: cell-based; conditions: 0 nM Compound B, 3 days
# Experimental: (§3) Further, whole blood (WB) autologous B-cell depletion and cell-death induction assays were conducted as described in Mossner et al., Blood 115:4393-402, 2010. For cell death assay: Ri-1 DLBCL cells were seeded at 15,000 cells/well in 96-well plates. Cells were preincubated with Compound B or DMSO for 1 hour before the addition of antibody. Plates were incubated at 37° C. in a humidified CO2 chamber for 3 days. Cells were washed once with PBS and treated with Accutase for 15 minutes before being stained with Guava Nexin® reagent and analyzed on the Guava EasyCyte flow cytometer (Merck Millipore).
# After 3 days of incubation, cell death was assessed by Annexin V/7AAD staining.
# WIL2-S = experiment: ADCC LDH release assay, purified NK cells against WIL2-S target cells; type: cell-based, human; conditions: for Percentage of ADCC, obinutuzumab ADCC: obinutuzumab 10 μg/mL; for Percentage of ADCC, Palivizumab ADCC: Palivizumab (isotype control) 10 μg/mL
# autologous B cells = experiment: Whole blood (WB) autologous B-cell depletion assay; type: cell-based
# Experimental: as §3
# The percentage of deplete autologous B cells in a whole blood assay may represent the antibody potency.
# CLL = conditions: patients with recurrent CLL; cited from earlier work
# p-AKT Ser473 [3] = experiment: Flow cytometry, TPO-activated AKT phosphorylation in CD34+ progenitor cells from MF patients; type: cell-based, human
# Experimental: as §1
# (§4) Also, PBMC cells from naïve or ruxolitinib treated patients were isolated and treated with Compound B and with TPO as described above. The percentage of TPO-activated AKT and S6RP phosphorylation were normalized to those of TPO-treated vehicle (“no TPO” values in Table 4). […] Also, the inhibition to PI3K signaling was dose-dependent to Compound B.
# as §2
# pS6RP Ser235/236 [4] = experiment: Flow cytometry, TPO-activated S6RP phosphorylation in CD34+ progenitor cells from MF patients; type: cell-based, human
# Experimental: as §1, §4, §2
# [5] = administered once a day; cited from earlier work
# [6] = 20 nM, Compound A-treated Cells
# [7] = 200 nM, Compound A-treated Cells
# [8] = 2000 nM, Compound A-treated Cells
compound,measurement,setting,value
"C[C@H](Nc1ncnc2[nH]cnc12)c1nc2ccccc2c(=O)n1-c1c(F)cccc1F [Compound D, (S)-2-(1-((9H-purin-6-yl)amino)ethyl)-3-(2,6-difluorophenyl)quinazolin-4(3H)-one]",effect on p-AKT in MF progenitor cells,p-AKT Ser473 [1],inhibited
same,effect on p-S6RP in MF progenitor cells,pS6RP Ser235/236 [2],inhibited
"obinutuzumab: glycoengineered, type II, anti-CD20 antibody",Percentage of total Annexin V+ cells,Ri-1 DLBCL cells; Obinutuzumab 0.1 μg/mL,30% and 36% and 35% and 37%
same,Percentage of total Annexin V+ cells,Ri-1 DLBCL cells; Obinutuzumab 1 μg/mL,45% and 50% and 49% and 46%
same,Percentage of total Annexin V+ cells,Ri-1 DLBCL cells; Obinutuzumab 10 μg/mL,54% and 49% and 56%
same,"Percentage of ADCC, obinutuzumab ADCC",WIL2-S; E:T 10:1,74% and 73% and 69% and 67% and 71%
same,"Percentage of ADCC, obinutuzumab ADCC",WIL2-S; E:T 30:1,81% and 72% and 80% and 84% and 69% and 89% and 88%
same,Percentage of B-cell depletion in WB,autologous B cells; obinutuzumab 0.06 ng/mL alone,−4% and −2% and 0%
same,Percentage of B-cell depletion in WB,autologous B cells; obinutuzumab 8 ng/mL alone,34% and 38% and 55% and 45%
same,Percentage of B-cell depletion in WB,autologous B cells; obinutuzumab 40 ng/mL alone,43% and 49% and 60% and 65%
same,Percentage of B-cell depletion in WB,autologous B cells; obinutuzumab 200 ng/mL alone,50% and 69%
same,Percentage of B-cell depletion in WB,"autologous B cells; obinutuzumab 1000 ng/mL alone, donors S1-S4",52% and 63% and 71% and 56%
same,Percentage of B-cell depletion WB,"autologous B cells; obinutuzumab 10 μg/mL, Compound B 0 nM",57% and 71% and 65%
"ofatumumab: monoclonal antibody, alternative immunotherapeutic for CLL",median progression-free survival (PFS),CLL,5.8 months
"alemtuzumab: monoclonal antibody, alternative immunotherapeutic for CLL",median progression-free survival (PFS),CLL,4.7 months
"C[C@H](Nc1ncnc2[nH]cnc12)c1nc2ccc(F)cc2c(=O)n1-c1ccccc1 [Compound C, (S)-2-(1-((9H-purin-6-yl)amino)ethyl)-6-fluoro-3-phenylquinazolin-4(3H)-one]","percentage of pAKT, TPO",p-AKT Ser473 [3]; [6],65%
same,"percentage of pAKT, TPO","p-AKT Ser473 [3]; 20 nM, Rux-treated Cells, TPO-treated vehicle=100",65%
same,"percentage of pAKT, TPO",p-AKT Ser473 [3]; [7],59%
same,"percentage of pAKT, TPO","p-AKT Ser473 [3]; 200 nM, Rux-treated Cells",53%
same,"percentage of pAKT, TPO",p-AKT Ser473 [3]; [8],43%
same,"percentage of pAKT, TPO","p-AKT Ser473 [3]; 2000 nM, Rux-treated Cells",24%
same,"percentage of pS6, TPO",pS6RP Ser235/236 [4]; [6],66%
same,"percentage of pS6, TPO","pS6RP Ser235/236 [4]; 20 nM, Rux-treated Cells",84%
same,"percentage of pS6, TPO",pS6RP Ser235/236 [4]; [7],70%
same,"percentage of pS6, TPO","pS6RP Ser235/236 [4]; 200 nM, Rux-treated Cells",62%
same,"percentage of pS6, TPO",pS6RP Ser235/236 [4]; [8],36%
same,"percentage of pS6, TPO","pS6RP Ser235/236 [4]; 2000 nM, Rux-treated Cells",42%
same,"percentage of pAKT, Basal","p-AKT Ser473 [1]; 20 nM 2 h, Rux-treated Cells, vehicle=100",88%
same,"percentage of pAKT, Basal",p-AKT Ser473 [1]; [6],89%
same,"percentage of pAKT, Basal",p-AKT Ser473 [1]; [7],82%
same,"percentage of pAKT, Basal","p-AKT Ser473 [1]; 200 nM, Rux-treated Cells",90%
same,"percentage of pAKT, Basal",p-AKT Ser473 [1]; [8],75%
same,"percentage of pAKT, Basal","p-AKT Ser473 [1]; 2000 nM, Rux-treated Cells",75%
same,effect on p-AKT in MF progenitor cells,p-AKT Ser473 [1],inhibited
same,"percentage of pS6, Basal",pS6RP Ser235/236 [2]; [6],82%
same,"percentage of pS6, Basal","pS6RP Ser235/236 [2]; 20 nM, Rux-treated Cells",65%
same,"percentage of pS6, Basal",pS6RP Ser235/236 [2]; [7],75%
same,"percentage of pS6, Basal","pS6RP Ser235/236 [2]; 200 nM, Rux-treated Cells",59%
same,"percentage of pS6, Basal",pS6RP Ser235/236 [2]; [8],53%
same,"percentage of pS6, Basal","pS6RP Ser235/236 [2]; 2000 nM, Rux-treated Cells",43%
same,effect on p-S6RP in MF progenitor cells,pS6RP Ser235/236 [2],inhibited
Palivizumab: used as an isotype control [reference compound],Percentage of total Annexin V+ cells,Ri-1 DLBCL cells; Palivizumab 10 μg/mL,13% and 19% and 14% and 21%
same,"Percentage of ADCC, Palivizumab ADCC",WIL2-S; E:T 1:1,3% and 4% and −1% and 2%
same,"Percentage of ADCC, Palivizumab ADCC",WIL2-S; E:T 3:1,8% and 11% and 10% and 6% and 4% and 5% and 7%
same,"Percentage of ADCC, Palivizumab ADCC",WIL2-S; E:T 30:1,31% and 37% and 36% and 34% and 39% and 25% and 29% and 24%
Cc1cnc(Nc2ccc(OCCN3CCCC3)cc2)nc1Nc1cccc(S(=O)(=O)NC(C)(C)C)c1 [TG101348],maximum tolerated dose (MTD),[5],680 mg/day

# Reference: US20160331754A1, “THERAPIES FOR TREATING CANCERS” (GILEAD SCIENCES, INC., priority 2014, published 2016)
